This assay deals with subjects with insomnia related to major depressive disorder. Nature of the assay: DREAMDD clinical study: Hamilton Depression Rating Scale (HAMD17). The format is in vivo, human. The method, then:
The change from baseline to each double-blind, post-treatment visit in the HAM-D-17 score as well as the change from baseline to each double-blind, weekly, post-treatment assessments in the HAM-D-6 (Bech) scores and HAM-D-6 (Maier) scores was presented descriptively (n, mean, median, standard deviation, minimum, 25th percentile, median, 75th percentile, and maximum) by treatment. Treatment comparisons were performed at each assessed time point. The analysis compared the eszopiclone 3 mg group to placebo using an analysis of variance model (ANOVA) with treatment and site as fixed effects. The analysis was performed using the SAS MIXED procedure.
Hamilton Depression Rating Scale (HAM-D17): During this analysis, a medical professional evaluates the patient according to seventeen criteria by selecting the response that best characterizes the patient's behavior during the past week. The criteria and responses are based on that described in Br. J. Soc. Clin. Psychol. 6: 278-296 (1967) and are reproduced below. Question 1: Depressed mood (Sadness, hopeless, helpless, worthless); Response: 0—Absent, 1—These feeling states indicated only on questioning, 2—These feeling states spontaneously reported verbally, 3—Communicates feeling states non-verbally i.e., through facial expression, posture, voice, and tendency to weep, or 4—Patient report virtually only these feeling states in their spontaneous verbal and non-verbal communication. Question 2: Feeling of guilt; Response: 0—Absent, 1—Self reproach, feels they have let people down, 2—Ideas of guilt or rumination over past errors or sinful deeds, 3—Present illness is a punishment and/or has delusions of guilt, or 4—Hears accusatory or denunciatory voices and/or experiences threatening visual hallucinations. Question 3: Suicide; Response: 0—Absent, 1—Feels life is not worth living, 2—Wishes they were dead or any thoughts of possible death to self, 3—Suicide ideas or gesture, 4-Attempts at suicide (any serious attempt rates 4). Question 4: Insomnia early; Response: 0—No difficulty falling asleep; 1—Complains of occasional difficulty falling asleep—i.e., more than ½ hour; or 2—complains of nightly difficulty falling asleep. Question 5: Insomnia middle; Response: 0—No difficulty, 1—patient complains of being restless and disturbed during the night, or 2—Waking during the night—any getting out of bed rates 2 (except for purposes of voiding). Question 6: Insomnia Late; Response: 0—No difficulty, 1—Waking in early hours of the morning but goes back to sleep, or 2—Unable to fall asleep again if they get out of bed. […] Question 8: Retardation (Slowness of thought and speech; impaired ability to concentrate; decreased motor activity); Response: 0—Normal speech and thought, 1—Slight retardation at interview, 2—Obvious retardation at interview, 3—Interview difficult, or 4—Complete stupor. Question 9: Agitation; Response: 0—None; 1—Fidgetiness; 2—Playing with hands, hair, etc.; 3—Moving about, can't sit still; or 4—Hand wringing, nail biting, hair-pulling, biting of lips. Question 10: Anxiety psychic: 0—No difficulty, 1—Subjective tension and irritability, 2—Worrying about minor matters, 3—Apprehensive attitude apparent in face or speech, or 4—Fears expressed without questioning. Question 11: Anxiety somatic (Physiological concomitants of anxiety, such as:—Gastro-intestinal: dry mouth, wind, indigestion, diarrhea, cramps, belching.—Cardio-vascular: palpitations, headaches.—Respiratory: hyperventilation, sighing.—Urinary frequency—Sweating); Response: 0—Absent, 1—Mild, 2—Moderate, 3—Severe, or 4—Incapacitating. Question 12: Somatic symptoms gastro-intestinal; Response: 0—None, 1—Loss of appetite but eating without staff encouragement and/or heavy feelings in abdomen; or 2—Difficulty eating without staff urging and/or requests or requires laxatives or medication for bowels or medication for gastro-intestinal symptoms. […]

On to `CN1CCN(C(=O)OC2c3nccnc3C(=O)N2c2ccc(Cl)cn2)CC1` (single isomer, unassigned; (+)) [Eszopiclone, (+) 6-(5-chloro-2-pyridinyl)-6,7-dihydro-7-oxo-5H-pyrrolo[3,4b]pyrazin-5-yl 4-methylpiperazine-1-carboxylate], for which the “HAMD 17 differences in patients with more severe depression (baseline HAMD 17≧22)” value (3 mg nightly + fluoxetine vs placebo) is given as “greater”. Also, the “changes in HAMD17 scores” value is on record as −9.9 (Week 4, p=0.02 vs placebo, 3 mg nightly + fluoxetine 20 mg QAM) and −13.8 (Week 8, p<0.001 vs placebo, 3 mg nightly + fluoxetine). For the setting “Week 8, p<0.009 vs placebo, 3 mg nightly + fluoxetine”, the “responders (50% decrease from baseline HAMD17)” value turned out to be 74%. Besides, the “remitters (HAMD17≦7)” value (Week 8, p<0.02 vs placebo, 3 mg nightly + fluoxetine) is 54%. Moreover, under “Week 8, p<0.03, 3 mg nightly + fluoxetine”, the “HAMD17 with removal of insomnia items, versus placebo” value is reported as “significant differences”. The “augmentation effect versus agents currently used for augmentation therapy, such as lithium” value (co-administration with fluoxetine) is “larger”. Further, under “end of the 8 week treatment period”, the “augmentation effect by severity of depression” value is listed as “most pronounced in the most severely depressed patients”.
